Experimental data as given in US20120107854A1, “REAGENT FOR MEASUREMENT OF CHOLINESTERASE ACTIVITY” (NATIONAL INSTITUTE OF RADIOLOGICAL SCIENCES, priority 2009, published 2012).

Columns and labels:
[1] = molecular target: purified human butyrylcholinesterase (Homo sapiens, UniProt P06276); assay: Hydrolysis rate with purified human butyrylcholinesterase by the Ellman method; assay type: biochemical; details: for hydrolysis rate with butyrylcholinesterase compared with spontaneous hydrolysis in the buffer solution: comparison of Table 1 values; for hydrolysis rate with Butyrylcholinesterase (change in absorbance per minute): phosphate buffer 0.1 M pH 7.4, 0.1% Tween 20, absorbance at 412 nm, measured three times, average ± standard deviation
Sequence of purified human butyrylcholinesterase (P06276 29-602): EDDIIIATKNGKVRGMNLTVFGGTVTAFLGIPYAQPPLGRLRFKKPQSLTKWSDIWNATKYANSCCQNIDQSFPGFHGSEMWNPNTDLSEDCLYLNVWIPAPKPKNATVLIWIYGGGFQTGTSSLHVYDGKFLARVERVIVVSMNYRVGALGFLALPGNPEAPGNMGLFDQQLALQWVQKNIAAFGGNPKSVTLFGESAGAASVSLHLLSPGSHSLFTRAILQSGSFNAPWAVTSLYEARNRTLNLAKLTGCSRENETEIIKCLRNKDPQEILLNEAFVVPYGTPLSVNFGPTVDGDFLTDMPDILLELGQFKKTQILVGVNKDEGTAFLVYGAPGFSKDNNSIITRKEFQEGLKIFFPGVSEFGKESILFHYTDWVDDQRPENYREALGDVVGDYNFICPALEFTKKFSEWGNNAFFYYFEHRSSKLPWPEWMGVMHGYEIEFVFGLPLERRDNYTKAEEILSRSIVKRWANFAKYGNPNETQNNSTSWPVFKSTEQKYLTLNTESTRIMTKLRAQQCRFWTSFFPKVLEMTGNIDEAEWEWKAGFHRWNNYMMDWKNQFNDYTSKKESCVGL
Procedure: (§1) To investigate the hydrolysis rate and specificity of each of (1a) and (2a), the hydrolysis rate in a solution of each of purified human acetylcholinesterase and purified human butyrylcholinesterase was measured by the Ellman method, and was compared with those of acetyl thiocholine and acetyl-[…]. To 3 ml of a solution of each enzyme whose concentration was adjusted with a phosphate buffer (0.1 M, pH 7.4) containing 0.1% of Tween 20, 0.1 ml of a solution (5 mM) of 5,5′-dithio-bis(2-nitrobenzoic acid) was added. To these mixtures, the substrates were respectively added in an amount of 0.02 ml (75 mM), and the absorbance (mAbs) at a wavelength of 412 nm was measured.
(§2) The values in the Table represent the changes in absorbance per minute measured three times in the form of average value±standard deviation.

[2] = Spontaneous hydrolysis rate in the buffer solution (Ellman method); assay type: physicochemical; details: buffer solution without enzyme; absorbance at 412 nm; measured three times, average ± standard deviation
[3] = molecular target: purified human acetylcholinesterase (Homo sapiens, UniProt P22303); assay type: biochemical; details: for hydrolysis rate with Acetylcholinesterase (change in absorbance per minute): phosphate buffer 0.1 M pH 7.4, 0.1% Tween 20, absorbance at 412 nm, measured three times, average ± standard deviation; for specificity for acetylcholinesterase: acetylcholinesterase versus butyrylcholinesterase hydrolysis; for reaction order of the hydrolysis rate (time dependence): at the substrate concentration, change with time showed good linearity; for reaction order of the hydrolysis rate (time dependence) / change in absorbance at 412 nm with time: FIG. 1; for substrate quality for acetylcholinesterase: hydrolysis rate lower than acetyl thiocholine and acetyl-δ methyl-thiocholine; for change in absorbance at 412 nm with time: in 120 minutes, acetylcholinesterase
Sequence of purified human acetylcholinesterase (P22303 32-614): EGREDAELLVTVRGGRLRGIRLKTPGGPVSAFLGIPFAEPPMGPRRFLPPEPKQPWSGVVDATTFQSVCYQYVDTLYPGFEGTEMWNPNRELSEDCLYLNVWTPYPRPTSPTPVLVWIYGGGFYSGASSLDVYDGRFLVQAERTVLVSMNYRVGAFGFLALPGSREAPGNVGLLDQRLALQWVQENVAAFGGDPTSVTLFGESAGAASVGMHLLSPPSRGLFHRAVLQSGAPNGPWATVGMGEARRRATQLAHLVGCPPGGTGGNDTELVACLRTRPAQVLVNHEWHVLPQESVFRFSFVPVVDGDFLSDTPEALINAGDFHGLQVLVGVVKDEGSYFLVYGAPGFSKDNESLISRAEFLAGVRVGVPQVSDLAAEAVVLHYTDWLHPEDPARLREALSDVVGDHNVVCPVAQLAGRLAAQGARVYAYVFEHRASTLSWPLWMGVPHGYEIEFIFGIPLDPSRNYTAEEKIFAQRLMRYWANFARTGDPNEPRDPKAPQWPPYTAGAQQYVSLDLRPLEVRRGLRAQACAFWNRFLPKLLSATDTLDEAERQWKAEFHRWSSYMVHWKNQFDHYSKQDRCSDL
Procedure: as §1, §2
The values represent the absorbance (Abs) measured three times in the form of average value±standard deviation.

Structure (SMILES)	hydrolysis rate with butyrylcholinesterase compared with spontaneous hydrolysis in the buffer solution [1]	hydrolysis rate with Butyrylcholinesterase (change in absorbance per minute) [1]	spontaneous hydrolysis rate (change in absorbance per minute) [2]	hydrolysis rate with Acetylcholinesterase (change in absorbance per minute) [3]	specificity for acetylcholinesterase [3]	reaction order of the hydrolysis rate (time dependence) [3]	substrate quality for acetylcholinesterase [3]	change in absorbance at 412 nm with time [3]
CC(=O)SC(C)C[N+](C)(C)C (stereo not drawn) [Acetyl-β methyl-thiocholine, reference compound]	significantly higher	7.1 ± 0.22 ΔmAbs/minute	0.48 ± 0.020 ΔmAbs/minute	29 ± 0.24 ΔmAbs/minute	–	–	–	–
CC(=O)SCC1CCN(C)CC1 [Compound (1a), 1-methylpiperidin-4-ylmethyl acetyl sulfide]	did not show any significant difference	0.47 ± 0.026 ΔmAbs/minute	0.47 ± 0.0096 ΔmAbs/minute	3.7 ± 0.098 ΔmAbs/minute	extremely highly specific	consistent with the zero-order reaction	good substrates for acetylcholinesterase	approximately 0.4 Abs
CC(=O)SCC1CC[N+](C)(C)CC1 [Compound (2a), 1,1-dimethylpiperidin-4-ylmethyl acetyl sulfide]	did not show any significant difference	0.15 ± 0.0077 ΔmAbs/minute	0.13 ± 0.027 ΔmAbs/minute	3.1 ± 0.15 ΔmAbs/minute	extremely highly specific	consistent with the zero-order reaction	good substrates for acetylcholinesterase	approximately 0.4 Abs
